US6596687B1, “Cell adhesion inhibitors” (Biogen, Inc., priority 1995, dated 2003)
Numbered stars: 1 amine (or outer) side, 2 acyl side, 3 side chain; on linkers, the order of the positions; unused ones are H or OH. Peptide text beside a SMILES is read from it. * marks the point of attachment. Suc = O=C(CCC(=O)[*:2])[*:1]; NHPh = c1ccc(N*)cc1

Target: T1, VLA4 (Homo sapiens, UniProt P05556+P13612)
T1 construct: endogenous in cells; host or cells: Ramos cells
Assay: Inhibition of VLA4-dependent adhesion of Ramos cells to BSA-CS1
Format: cell-based
Details: not given
Text: For example, the cell adhesion inhibitory activity of these compounds may be measured by determining the concentration of inhibitor required to block the binding of VLA-4-expressing cells to fibronectin- or CS1-coated plates. In this assay microtiter wells are coated with either fibronectin (containing the CS1-sequence) or CS-1. If CS-1 is used, it must be conjugated to a carrier protein, such as bovine serum albumin, in order to bind to the wells. Once the wells are coated, varying concentrations of the test compound are then added together with appropriately labelled, VLA-4-expressing cells. Alternatively, the test compound may be added first and allowed to incubate with the coated wells prior to the addition of the cells. The cells are allowed to incubate in the wells for at least 30 minutes. Following incubation, the wells are emptied and washed. Inhibition of binding is measured by quantitating the fluorescence or radioactivity bound to the plate for each of the various concentrations of test compound, as well as for controls containing no test compound.
VLA-4-expressing cells that may be utilized in this assay include Ramos cells, Jurkat cells, A375 melanoma cells, as well as human peripheral blood lymophocytes (PBLs). The cells used in this assay may be fluorescently or radioactively labelled.
This assay was used to assess the potency of VLA4-directed inhibitory compounds of this invention. 1.
We dissolved BSA-SMCC (Pierce Chemical, Rockford, Ill.; Catalog #77115) in H2O at a concentration of 10 mg/mL. [SEQ ID NO:4]: […](“Cys-Tyr-CS1 peptide”), which we synthesized by conventional solid phase chemistry and purified by HPLC, was dissolved in 10 mM HEPES pH 5, 50 mM NaCl and 0.1 mM EDTA also at a concentration of 10 mg/mL. We then mixed 500 μL of BSA-SMCC, 250 μL of Cys-Tyr-CS1 peptide and 75 μL of 1 mM HEPES pH 7.5 and allowed the conjugation reaction to proceed for 30 minutes. We stopped the reaction by adding 1 μL of beta-mercaptoethanol. Samples were analyzed for cross-linking by SDS-PAGE.
We coated the wells of a Linbro titertek polystyrene 96-well flat bottom plate (Flow Laboratories, Maclean, Va.; catalog #76-231-05) with 100 μL of the above-described BSA-CS1 solution diluted to 1 μg/mL in 0.05 M NaHCO3 (15 mM NaHCO3, 35 mM Na2CO3) pH 9.2. Some wells were not coated with CS1 in order to assess non-specific cell binding (NSB). The plate was then incubated overnight at 4° C.
Following this incubation, the contents of the wells were removed by inverting and blotting the plate. All of the wells were then blocked with 100 μL of 1% BSA in PBS, 0.02% NaN3, for a minimum of one hour at room temperature.
Ramos cells are grown, maintained and labelled in RPMI 1640 culture medium containing 1% BSA. Just prior to running the assay, we added 2′, 7′-bis-(2-carboxyethyl)-5(and -6)carboxyfluorescein acetoxymethyl ester (“BCECF-AM”; Molecular Probes Inc., Eugene, Oregon; catalog #B-1150) to a final concentration of 2 μM to a culture of Ramos cells (4×10^6 cells/mL). We incubated the cells for 20 minutes at 37° C.
Following labelling, the cells were washed twice in assay buffer (24 mM TRIS, 137 mM NaCl, 2.7 mM KCl, pH 7.4, containing 0.1 BSA and 2mM glucose) to remove any cations originating from the culture medium. The cells were then resuspended in assay buffer to 4×10^6 cells/mL and 2 mM MnCl2 was added to upregulate VLA4 on the surface of the cells.
Immediately prior to running the assay, we removed the BSA blocking solution from the 96-well plates and washed the wells with 100 μL of assay buffer. We then added to each well 25 μL of test cell adhesion inhibitory compound at 2×the final concentration and 25 μL of the labelled Ramos cells. […] Each concentration of compound was tested in triplicate. The compound and cells are allowed to incubate for 30 minutes at room temperature.

T1 sequence (P13612 34-1032): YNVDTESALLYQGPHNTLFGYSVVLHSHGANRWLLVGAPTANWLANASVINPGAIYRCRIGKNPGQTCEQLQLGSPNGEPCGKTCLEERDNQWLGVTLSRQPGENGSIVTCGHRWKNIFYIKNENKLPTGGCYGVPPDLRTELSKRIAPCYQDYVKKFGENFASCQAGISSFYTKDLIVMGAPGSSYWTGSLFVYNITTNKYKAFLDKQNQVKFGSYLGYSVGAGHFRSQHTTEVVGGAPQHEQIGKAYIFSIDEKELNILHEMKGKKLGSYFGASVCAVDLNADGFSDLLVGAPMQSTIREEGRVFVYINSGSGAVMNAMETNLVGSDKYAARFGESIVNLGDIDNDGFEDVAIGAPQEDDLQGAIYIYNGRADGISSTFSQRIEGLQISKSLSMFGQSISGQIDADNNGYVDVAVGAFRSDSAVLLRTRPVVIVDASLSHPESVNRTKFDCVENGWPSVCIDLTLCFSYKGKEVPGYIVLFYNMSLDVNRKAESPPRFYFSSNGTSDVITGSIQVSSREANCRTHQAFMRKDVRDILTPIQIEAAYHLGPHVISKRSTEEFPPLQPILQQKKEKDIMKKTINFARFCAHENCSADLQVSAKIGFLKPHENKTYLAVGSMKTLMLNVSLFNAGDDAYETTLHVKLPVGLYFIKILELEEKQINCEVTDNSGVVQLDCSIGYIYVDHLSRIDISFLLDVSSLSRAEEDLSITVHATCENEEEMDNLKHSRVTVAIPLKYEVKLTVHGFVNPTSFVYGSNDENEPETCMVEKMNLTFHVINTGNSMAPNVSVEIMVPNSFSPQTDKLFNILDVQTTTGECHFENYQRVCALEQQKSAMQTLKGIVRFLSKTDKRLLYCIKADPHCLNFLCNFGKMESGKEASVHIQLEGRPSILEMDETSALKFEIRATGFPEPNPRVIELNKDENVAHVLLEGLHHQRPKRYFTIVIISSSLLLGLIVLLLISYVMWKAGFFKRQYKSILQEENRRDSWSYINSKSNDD
T1 sequence (P05556 21-798): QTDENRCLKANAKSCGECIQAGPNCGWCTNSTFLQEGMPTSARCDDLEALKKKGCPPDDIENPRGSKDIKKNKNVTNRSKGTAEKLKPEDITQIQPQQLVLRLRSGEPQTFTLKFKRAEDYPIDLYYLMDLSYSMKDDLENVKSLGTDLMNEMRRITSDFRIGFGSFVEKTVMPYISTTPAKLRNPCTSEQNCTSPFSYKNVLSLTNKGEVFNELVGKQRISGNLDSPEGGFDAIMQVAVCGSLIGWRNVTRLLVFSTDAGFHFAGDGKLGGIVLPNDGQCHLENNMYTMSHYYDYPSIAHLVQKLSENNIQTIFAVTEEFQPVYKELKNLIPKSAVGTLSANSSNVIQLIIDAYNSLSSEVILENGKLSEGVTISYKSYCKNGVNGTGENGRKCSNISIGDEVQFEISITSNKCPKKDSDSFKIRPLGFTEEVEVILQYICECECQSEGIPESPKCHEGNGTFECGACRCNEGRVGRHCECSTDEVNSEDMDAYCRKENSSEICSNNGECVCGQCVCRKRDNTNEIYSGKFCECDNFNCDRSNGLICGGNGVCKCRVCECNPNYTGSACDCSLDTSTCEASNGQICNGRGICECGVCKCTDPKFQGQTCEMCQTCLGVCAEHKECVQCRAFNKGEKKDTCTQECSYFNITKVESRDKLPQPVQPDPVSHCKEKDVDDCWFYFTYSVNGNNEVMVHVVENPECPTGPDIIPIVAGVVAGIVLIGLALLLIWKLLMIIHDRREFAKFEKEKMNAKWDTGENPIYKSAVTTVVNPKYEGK

Row | SMILES | IC50 [µM]
1 | CC(C)C[C@H](NC(=O)C1CCc2ccccc2N1)C(=O)N[C@@H](CC(=O)O)C(=O)N[C@H](C(=O)N1CCC(c2ccccc2)CC1)C(C)C (stereo partly shown) [Compound 115] | > 10

Same assay, conditions: Ramos cells, BSA-CS1 coated wells, 2 mM MnCl2, 30 minutes at room temperature; read-out: IC50

Row | SMILES | IC50 [µM]
2 | CC(C)[C@H](NC(=O)[C@H](CC(=O)O)NC(=O)c1cc2ccccc2cn1)C(=O)O [Compound 70] | > 10
3 | CC(C)[C@H](NC(=O)[C@H](CC(=O)O)NC(=O)C1Cc2ccccc2CN1)C(=O)O (stereo partly shown) [Compound 71] (HELM PEPTIDE1{[O=C(C1Cc2ccccc2CN1)[*:2]].D.V}$$$$V2.0) | > 10
4 | CC(C)C[C@H](NC(=O)C1CCc2ccccc2C1)C(=O)N[C@@H](CC(=O)O)C(=O)N[C@H](C(=O)O)C(C)C (stereo partly shown) [Compound 73] | > 10
5 | CC(C)[C@H](NC(=O)[C@H](CC(=O)O)NC(=O)C1CCc2ccccc2C1)C(=O)O (stereo partly shown) [Compound 75] | > 10
6 | O=C(O)C[C@H](NC(=O)c1cc2ccccc2cn1)C(=O)N[C@@H](Cc1ccccc1)C(=O)O [Compound 87] | > 10
7 | CC(C)C[C@H](NC(=O)[C@H](CC(=O)O)NC(=O)C1Cc2ccccc2CN1)C(=O)O (stereo partly shown) [Compound 88] (HELM PEPTIDE1{[O=C(C1Cc2ccccc2CN1)[*:2]].D.L}$$$$V2.0) | > 10
8 | CC(C)C[C@H](NC(=O)[C@H](CC(=O)O)NC(=O)[C@H](CC(C)C)NC(=O)C1Cc2ccccc2CN1)C(=O)O (stereo partly shown) [Compound 90] (HELM PEPTIDE1{[O=C(C1Cc2ccccc2CN1)[*:2]].L.D.L}$$$$V2.0) | > 10
9 | CC(C)C[C@H](NC(=O)c1ccc2ccccc2n1)C(=O)N[C@@H](CC(=O)O)C(=O)N[C@H](C(=O)O)C(C)C [Compound 94] | > 10
10 | CC(C)C[C@H](NC(=O)c1cc2ccccc2[nH]1)C(=O)N[C@@H](CC(=O)O)C(=O)N[C@H](C(=O)O)C(C)C [Compound 99] | > 10
11 | CC(C)CNC(=O)[C@H](CC(=O)O)NC(=O)[C@H](CC(C)C)NC(=O)c1ccccc1 [Compound 101] | > 10
12 | CC(C)CNC(=O)[C@H](CC(=O)O)NC(=O)[C@H](CC(C)C)NC(=O)CCCCc1ccccc1 [Compound 106] | > 10
13 | CC(C)C[C@H](NC(=O)CCC(=O)Nc1ccccc1)C(=O)N[C@@H](CC(=O)O)C(=O)N[C@H](C(=O)O)C(C)C [Compound 107] ({NHPh-Suc}-Leu-Asp-Val-OH) | > 10
14 | CC(C)C[C@H](NC(=O)CCC(=O)Nc1ccc(F)cc1)C(=O)N[C@@H](CC(=O)O)C(=O)N[C@H](C(=O)O)C(C)C [Compound 108] | > 10
15 | CC(C)CCNC(=O)[C@H](CC(=O)O)NC(=O)[C@H](CC(C)C)NC(=O)C1CCc2ccccc2N1 (stereo partly shown) [Compound 110] | > 10
16 | CC(C)CNC(=O)[C@H](CC(=O)O)NC(=O)[C@H](CC(C)C)NC(=O)CCC(=O)Nc1ccccc1 [Compound 111] | > 10
17 | CC(C)C[C@@H](C(=O)N[C@@H](CC(=O)O)C(=O)N[C@H](C(=O)O)C(C)C)N(C)C(=O)c1ccccc1 [Compound 113] (HELM PEPTIDE1{[O=C(c1ccccc1)[*:2]].[meL].D.V}$$$$V2.0) | > 10
18 | CCCCCCNC(=O)[C@@H](NC(=O)[C@H](CC(=O)O)NC(=O)[C@H](CC(C)C)NC(=O)CCc1ccc(O)cc1)C(C)C [Compound 119] | > 10

Continued, values first:

Row | IC50 [µM] | SMILES
19 | > 10 | CC(C)C[C@H](NC(=O)C1(N)CCc2ccccc2C1)C(=O)N[C@@H](CC(=O)O)C(=O)N[C@H](C(=O)O)C(C)C (stereo partly shown) [Compound 67] (HELM PEPTIDE1{[NC1(C(=O)[*:2])CCc2ccccc2C1].L.D.V}$$$$V2.0)
20 | > 10 | CC(C)[C@H](NC(=O)[C@H](CC(=O)O)NC(=O)OC(C)(C)C)C(=O)O [Compound 68] (HELM PEPTIDE1{[CC(C)(C)OC(=O)[*:2]].D.V}$$$$V2.0)
21 | > 10 | CC(C)C[C@H](NC(=O)c1cc2ccccc2cn1)C(=O)N[C@@H](CC(=O)O)C(=O)N[C@H](C(=O)O)C(C)C [Compound 69]
22 | > 10 | CC(C)[C@H](NC(=O)[C@H](CC(=O)O)NC(=O)CCCCc1ccccc1)C(=O)O [Compound 76]
23 | > 10 | CC(C)C[C@H](NC(=O)c1ccccn1)C(=O)N[C@@H](CC(=O)O)C(=O)N[C@H](C(=O)O)C(C)C [Compound 77]
24 | > 10 | CC(C)[C@H](NC(=O)[C@H](CC(=O)O)NC(=O)c1ccccn1)C(=O)O [Compound 78]
25 | > 10 | CC(C)C[C@H](NC(=O)C1CCOC1)C(=O)N[C@@H](CC(=O)O)C(=O)N[C@H](C(=O)O)C(C)C (stereo partly shown) [Compound 79]
26 | > 10 | CC(C)C[C@H](NC(=O)C1CCCO1)C(=O)N[C@@H](CC(=O)O)C(=O)N[C@H](C(=O)O)C(C)C (stereo partly shown) [Compound 80]
27 | > 10 | CC(C)[C@H](NC(=O)[C@H](CC(=O)O)NC(=O)[C@H](Cc1ccccc1)NC(=O)c1cc2ccccc2cn1)C(=O)O [Compound 81]
28 | > 10 | CC(C)C[C@H](NC(=O)[C@H](CC(=O)O)NC(=O)c1cc2ccccc2cn1)C(=O)O [Compound 89]
29 | > 10 | CC(C)C[C@H](NC(=O)[C@H](CC(=O)O)NC(=O)[C@H](CC(C)C)NC(=O)c1cc2ccccc2cn1)C(=O)O [Compound 91]
30 | > 10 | CC(C)C[C@H](NC(=O)C1Cc2ccccc2CN1)C(=O)N[C@@H](CC(=O)O)C(=O)N[C@@H](Cc1ccccc1)C(=O)O (stereo partly shown) [Compound 92] (HELM PEPTIDE1{[O=C(C1Cc2ccccc2CN1)[*:2]].L.D.F}$$$$V2.0)
31 | > 10 | CC(C)C[C@H](NC(=O)c1cc2ccccc2cn1)C(=O)N[C@@H](CC(=O)O)C(=O)N[C@@H](Cc1ccccc1)C(=O)O [Compound 93]
32 | > 10 | CC(C)C[C@H](NC(=O)CC(c1ccccc1)c1ccccc1)C(=O)N[C@@H](CC(=O)O)C(=O)N[C@H](C(=O)O)C(C)C [Compound 95]
33 | > 10 | CC(C)[C@H](NC(=O)[C@H](CC(=O)O)NC(=O)[C@H](C)NC(=O)C1Cc2ccccc2CN1)C(=O)O (stereo partly shown) [Compound 96] (HELM PEPTIDE1{[O=C(C1Cc2ccccc2CN1)[*:2]].A.D.V}$$$$V2.0)
34 | > 10 | CC(C)[C@H](NC(=O)[C@H](CC(=O)O)NC(=O)[C@H](C)NC(=O)c1cc2ccccc2cn1)C(=O)O [Compound 97]
35 | > 10 | CC(C)C[C@H](NC(=O)CCCCc1ccccc1)C(=O)N[C@@H](CC(=O)O)C(=O)N[C@H](C(=O)O)C(C)C [Compound 98]
36 | > 10 | CC(C)CNC(=O)[C@H](CC(=O)O)NC(=O)[C@H](CC(C)C)NC(=O)CCc1ccc(O)cc1 [Compound 100]
37 | > 10 | CC(C)CCNC(=O)[C@H](CC(=O)O)NC(=O)[C@H](CC(C)C)NC(=O)CCCCc1ccccc1 [Compound 102]
38 | > 10 | CC(C)CCNC(=O)[C@H](CC(=O)O)NC(=O)[C@H](CC(C)C)NC(=O)CCc1ccc(O)cc1 [Compound 103]
39 | > 10 | CC(C)C[C@H](NC(=O)CCCCCc1ccccc1)C(=O)N[C@@H](CC(=O)O)C(=O)N[C@H](C(=O)O)C(C)C [Compound 104]
40 | > 10 | CC(C)C[C@H](NC(=O)c1ccccc1)C(=O)N[C@@H](CC(=O)O)C(=O)N[C@H](C(=O)O)C(C)C [Compound 105] (HELM PEPTIDE1{[O=C(c1ccccc1)[*:2]].L.D.V}$$$$V2.0)
41 | > 10 | CC(C)C[C@H](NC(=O)CCC(=O)N(C)c1ccccc1)C(=O)N[C@@H](CC(=O)O)C(=O)N[C@H](C(=O)O)C(C)C [Compound 109]
42 | > 10 | CCCCCCNC(=O)[C@H](CC(=O)O)NC(=O)[C@H](CC(C)C)NC(=O)CCc1ccc(O)cc1 [Compound 116]
43 | > 10 | CC(C)C[C@H](NC(=O)CCc1ccc(O)cc1)C(=O)N[C@@H](CC(=O)O)C(=O)N(CC(C)C)CC(C)C [Compound 117]
